Measurements taken from PubChem BioAssay AID434955 (Southern Research Specialized Biocontainment Screening …, 2010).

Test system: M. tuberculosis H37Rv growth with meropenem, percent inhibition
Experiment: beta-lactam sensitization of Mtb H37Rv, H37Rv (AID 434955)

Row | SMILES | IC90 [µM]
1 | Nc1ncnc2c1c(-c1ccc(Oc3ccccc3)cc1)cn2C1CCCC1 | 60.3
2 | NNC(=S)NC1CC2CC1C1C=CCC21 (stereo not drawn) | 13.5
3 | OCCCc1cn(-c2ccccc2)c2ccccc12 | 60.8
4 | CCOc1ccc2c(c1)c(C(C)=O)c(C)n2-c1ccccc1 | 1.96
5 | Cc1cc(C)n(-c2nc3ccccc3c(=O)n2OCC(=O)N(C)C)n1 | 23.3
6 | c1ccc(-c2cc(N3CCOCC3)nc3ccccc23)cc1 | 91.5
7 | Cc1cc2ccccc2n1CCNC(=O)COc1ccccc1 | 42.8
8 | Cc1cccc2c(C(=O)n3cccn3)cc(-c3ccccc3Cl)nc12 | 26.8
9 | CN(C)/N=C/c1ccc(/C=N/NC(N)=S)o1 | 43.3
10 | CCCCNC(=O)c1onc(CSc2ccccc2CC)c1C(=O)O | 23.7
11 | COCc1cc(=O)n2[nH]cc(-c3ccccc3)c2n1 | 15.5
12 | O=C1OC(/C=C/c2ccccc2)=NC/1=C/c1ccco1 | 13.9
13 | O=C1c2ccccc2N2C(=O)c3ccccc3C2N1O (stereo not drawn) | 56.4
14 | C=CCN=c1scc(-c2ccc(F)cc2)n1/N=C/c1ccccn1 | 71.7
15 | Cc1cc(C(=O)CSc2nnnn2-c2ccccc2)c(C)n1-c1ccc2c(c1)OCO2 | 60.9
16 | Cc1c(C=O)c(C=O)c(C)n1Cc1ccccc1 | 69.3
17 | CC(=O)Nc1ccc(Nc2ncc([N+](=O)[O-])c(Nc3ccc(NC(C)=O)cc3)n2)cc1 | 45.5
18 | CCOC(=O)c1c(NC(=O)COC(=O)c2ncc(Cl)c(Cl)c2Cl)sc(C(=O)N(C)C)c1C | 27.7
19 | CCOC(=O)c1cnc2cc(-c3ccc(C(C)(C)C)cc3)nn2c1N | 5.74
20 | O=c1oc(-c2cccs2)nc2sc3c(c12)CCCC3 | 29.7
21 | C/C(CC(=O)Nc1c(C)cc(C)cc1C)=N\NC(=O)c1cnccn1 | 17.4
22 | O=C(NCCC1=CCCCC1)c1ccc(Cl)c([N+](=O)[O-])c1 | 30.2
23 | CCOC(=O)N1CCN(C(=O)CSc2nnc(COc3ccccc3)o2)CC1 | 18.4
24 | O=C(Oc1c(-c2ccccc2)c(=O)n2c3c(cccc13)CC2)c1cccc([N+](=O)[O-])c1 | 62.3

Row | SMILES | IC90 [µM]
25 | CC(=O)Nc1ccc(SCC(=O)c2cc(C)n(C)c2C)cc1 | 53.6
26 | CC(C)(C)NCCCOc1ccc(Cl)cc1C(C)(C)C | 26.9
27 | COc1cc(/C(C)=N\NC(N)=S)cc(OC)c1OC | 19.6
28 | Cc1ccc(C2=N/C(=C\c3cccc(F)c3)C(=O)O2)cc1 | 4.02
29 | N#Cc1c(SCC(=O)O)nc(N2CCCCC2)c2c1CCCC2 | 27
30 | Cc1ccc(SCCNC(=O)c2ccc(C)c([N+](=O)[O-])c2)cc1 | 54
31 | Cc1cc(C=C2C(=O)NC(=S)NC2=O)c(C)n1-c1ccc2c(c1)OCO2 | 14.5
32 | COc1cc(OC)cc(-c2cc3ccc(OC)cc3cn2)c1 | 76.9
33 | CCOC(=O)CNC(=O)/C(=C\c1ccc(F)cc1)NC(=O)c1ccccc1 | 35.1
34 | COc1ccccc1C(c1c(N)n(C)c(=O)n(C)c1=O)C(C)[N+](=O)[O-] (stereo not drawn) | 18
35 | COc1ccc(-n2cc(-c3ccccc3)c3c(NN4CCOCC4)ncnc32)cc1 | 36.1
36 | Cc1cccc(Nc2nnc(SCC(=O)Nc3ncc(C(F)(F)F)cc3Cl)s2)c1C | 21.5
37 | O=c1c2c3n(c(=S)nc2[nH]n1-c1ccccc1)CCCCC3 | 13.3
38 | COC(=O)CNC(c1ccccc1Cl)c1cc(Br)ccc1NC(=O)CCN1CCOCC1 (stereo not drawn) | 34.3
39 | NNC(=O)c1cccc(O)c1 | 73.9
40 | CCCCN=C1CC(C)(C)CC(=O)/C1=C(/O)CCC | 28.7
41 | COCCCn1c(=O)/c(=C\c2ccccc2OC(C)C)s/c1=C(/C#N)C(=O)Nc1ccc(C(=O)O)cc1 | 18.5
42 | COc1ccc(OC)c(NC(=O)CS(=O)(=O)c2ccccc2)c1 | 14.3
43 | CC(C)(C)c1nn(-c2ccccc2)c2[nH]c(=O)c(CNc3ccc4c(c3)OCCO4)cc12 | 99.7
44 | CC(NC(=O)CSc1nc2ccccc2c(=O)[nH]1)c1ccccc1 (stereo not drawn) | 60.9
45 | O=C(Cc1cccc2ccccc12)N/N=C/c1ccc(O)c([N+](=O)[O-])c1 | 31.6
46 | CCCCNC(=O)c1onc(CSc2ccc(F)c(F)c2)c1C(=O)O | 56.8
47 | Cc1cc(C2C(=O)c3ccccc3C2=O)c(C)c(C)c1C | 16.4
48 | CC/C(=N\NC(=S)NC(C)C)c1ccc(OC)c(OC)c1 | 15.5

Row | SMILES | IC90 [µM]
49 | CC(=O)c1ccc(OC(=O)N(c2ccccc2)c2ccccc2)cc1 | 32.9
50 | C/C(=N/NC(=O)c1cccs1)c1c(C)[nH]n(-c2nc3ccccc3s2)c1=O | 1.58
51 | Cc1ccccc1CSc1nnc(C)c(=O)n1N | 32.3
52 | CCCOc1ccc(C(=O)CCN2CCCCC2)cc1 | 36.4
53 | Cc1cccc(Cl)c1NC(=S)NN | 55.1
54 | Cc1nn(-c2ccccc2)c(Cl)c1CN(C(=O)CCl)c1cccc2ccccc12 | 48.2
55 | COc1cc(/C=C/c2ccc3cccc([N+](=O)[O-])c3n2)ccc1OCC(=O)O | 12
56 | CC1CCCN(S(=O)(=O)c2ccc(C(=O)Nc3nnc(-c4ccncc4)o3)cc2)C1 (stereo not drawn) | 64.8
57 | CCCn1nnnc1NC(=O)COc1ccc(Cl)cc1C | 42.9
58 | COC(=O)c1sc(-c2ccc(Cl)cc2)cc1NC(=O)COCC(=O)O | 44.8
59 | O=C(CCNc1ccccc1)c1cccc([N+](=O)[O-])c1 | 45.8
60 | CC(O)/C=C/c1ccc2ccccc2n1 (stereo not drawn) | 57.5
61 | CCN(CC)C(=O)CSc1nnc2nnc3cc(OC)ccc3n12 | 13.4
62 | COc1ccc(/C=C/C(=O)N(C(C)C)C(C)C)cc1Br | 96.4
63 | Cc1cc(=O)[nH]c(N/N=C/c2c(F)c(F)c(F)c(F)c2F)n1 | 82.3
64 | O=C(CN1C(=O)c2cccc([N+](=O)[O-])c2C1=O)N1CCN(c2ccc(F)cc2)CC1 | 74.5
65 | CC1(C)CCN2CCC(C)(C)c3c(O)ccc1c32 | 49.3
66 | CC[C@@](C)(NS(=O)(=O)OCC(Cl)(Cl)Cl)c1ccccc1 | 54.8
67 | O=C(NN1C(=O)c2cc(Br)ccc2NC1c1ccccc1Cl)c1ccncc1 (stereo not drawn) | 13.7
68 | COc1ccc(N2C(=O)NC(=O)/C(=C\c3ccc([N+](=O)[O-])s3)C2=O)cc1 | 21.3
69 | C/C(=N\NC(=O)c1ccncc1)c1c(O)n(-c2ccccc2)c(=O)[nH]c1=O | 3.94
70 | Cc1cccc(-n2nc([N+](=O)[O-])c(=NC3CCN(Cc4ccccc4)CC3)n2O)c1 | 30.5
71 | Cc1cc(C)cc(SCc2noc(C(=O)NC(C)C)c2C(=O)O)c1 | 27.3
72 | O=C(CSc1nnc(-c2ccncc2)o1)c1cccc([N+](=O)[O-])c1 | 45.4

Row | SMILES | IC90 [µM]
73 | O=C(Cc1ccc(Cl)cc1Cl)Nc1ccc(OC(F)F)c(Cl)c1 | 13.7
74 | COCCSc1nc2sc3c(c2c(=O)n1-c1ccccc1)CCN(C)C3 | 53.3
75 | CCNC(=S)N/N=C1\C(=O)c2cccc3cccc1c23 | 7.61
76 | COc1ccc(NC(=O)c2cc(C)nc3ccccc23)c(OC)c1 | 12.9
77 | Cn1nnnc1Sc1ncnc2scc(-c3ccc(C(F)(F)F)cc3)c12 | 15
78 | Cc1ccc(C(=O)Nc2c(C)cc(C)c3cccnc23)cc1 | 10.5
79 | O=C(NN1C(=O)C2C(C1=O)C1C=CC2C12CC2)c1ccncc1 (stereo not drawn) | 13.9
80 | O=C(N/N=C/c1ccc(OC(=O)c2ccc3c(c2)OCO3)cc1)c1cncc(Br)c1 | 48.3
81 | O=c1oc(-c2ccco2)nc2sc3c(c12)CCCCC3 | 38.5
82 | CCc1cc(C(=O)O)c(NC(=O)/C=C/c2ccc(OC)cc2)s1 | 59.7
83 | Cc1ccc(CN2C(=O)N/C(=C\c3ccc(-c4ccc(C(=O)O)cc4C)o3)C2=O)cc1 | 14.7
84 | CC/C(=N\NC(=O)c1ccc(-c2ccccc2)cc1)C12CC3CC(CC(C3)C1)C2 | 43.7
85 | COCCNC(=S)N/N=C1\CC(C)CC(C)(C)C1 (stereo not drawn) | 27.5
86 | CCC(C(=O)NC1C(=O)N2C(C(=O)O)=C(CSc3nnc(C)s3)CSC12)c1ccccc1 (stereo not drawn) | 1.57
87 | COCCCn1c(=O)/c(=C\c2cccc(OC)c2OC)s/c1=C(/C#N)C(=O)Nc1ccc(C(=O)O)cc1 | 24.6
88 | O=C(/C=C/c1cccnc1)c1ccc(O)cc1 | 50.4
89 | Cc1onc(NC(=O)c2ccc([N+](=O)[O-])o2)c1Br | 16.4
90 | C=CCNCCCOc1ccc(Cl)cc1C(C)(C)C | 52.6
91 | O=C1/C(=C/c2ccncc2)CCc2ccccc21 | 29.1
92 | CCCCCCCN(C(=O)CCl)c1ccccc1C | 35.2
93 | COc1ccc(C(=O)/C=C/c2ccc(O)cc2)c(O)c1CC=C(C)C | 75.1
94 | COc1ccc(C(=O)NC(=S)Nc2ccc(S(=O)(=O)Nc3cc(C)on3)cc2)cc1OC | 29
95 | CCOC(=O)c1ccc(C(=O)NNC(=O)C2CC=CCC2)cc1 (stereo not drawn) | 40
96 | Cc1onc(-c2ccccc2Cl)c1C(=O)NCc1ccc2c(c1)cc(C)n2C | 29.4

Row | SMILES | IC90 [µM]
97 | CSc1ccc(/C=C/C(=O)NC23CC4CC(CC(C4)C2)C3)cc1 | 16.1
98 | S=C(NNc1ccc2ccccc2c1)NC1CCCCC1 | 41.3
99 | CN1C/C(=N\S(=O)(=O)c2ccccc2)N(C)C1=O | 33.7
100 | CCOc1ccc(N2C(=O)CC(N)C2=O)cc1 (stereo not drawn) | 52.4
101 | CCc1cc(C(N)=S)ccn1 | 12.8
102 | C[C@H]1C=CC(=O)O[C@H]1c1ccccc1 | 49.5
103 | CCn1cc(C(=O)O)c(=O)c2cc(F)c(N3CCN(C(=S)NC(=O)c4ccccc4C)CC3)cc21 | 16
104 | COc1cccc(/C=N/NC(=O)NC23CC4CC(CC(C4)C2)C3)c1O | 26.8
105 | CN(C)CCCN(C(=O)/C=C/c1cccs1)c1nc2ccc(F)cc2s1 | 48.4
106 | O=C(Nc1ccc2nc3n(c(=O)c2c1)CCCC3)c1cc([N+](=O)[O-])ccc1F | 91
107 | CC1(C)CC(CCNC(=O)CCl)(c2ccccc2)CCO1 (stereo not drawn) | 8.14
108 | Cc1ccc(C)c(SCc2noc(C(=O)NCC3CCCO3)c2C(=O)O)c1 (stereo not drawn) | 48
109 | O=C1C(Cl)=C(N2CCCCCC2)C(=O)N1c1ccc(Br)cc1 | 19.4
110 | Cc1ccc(-c2[nH][nH]c(=O)c(=O)c2N=Nc2ccccc2)cc1 | 86.2
111 | C=C(C)C1Cc2c(C)nn(-c3cccc4ccccc34)c2C1 (stereo not drawn) | 47.4
112 | CCOC(=O)COc1ccc2nsnc2c1 | 26
113 | Cc1cc(Br)ccc1NC(=O)CN1C(=O)C2CC=CCC2C1=O (stereo not drawn) | 38.7
114 | O=C(N/N=C/c1c(O)n(Cc2ccc(F)cc2)c(=S)[nH]c1=O)c1ccncc1 | 9.8
115 | Cc1ccc(C2=NN3C(=O)c4ccccc4C3C2)cc1 (stereo not drawn) | 35.1
116 | O=C(O)CCN1C(=O)/C(=C/c2ccc(-c3nc4ccccc4s3)o2)SC1=S | 78.4
117 | CCCCC12CN3CC(C)(CN(C1)C3c1ccc([N+](=O)[O-])o1)C2=O (stereo not drawn) | 23.5
118 | COc1ccc(C(=O)CN(C(=O)c2ccc(Cl)cc2)N2C(=O)c3ccccc3C2=O)cc1 | 22.4
